Source: patent publication US11844847B2, “Sulfur-containing polymerizable monomer and use thereof” (SUN MEDICAL CO., LTD., priority 2018, dated 2023)

Assay: Solubility evaluation: solution stirred 0.5 hours, visually inspected for insolubles
Type: physicochemical
Description: Solutions were obtained by adding the sulfur-containing compound of the amount described in Table 1 or Table 1a to the amount described in Table 1 or Table 1a of the organic solvent or the radically polymerizable monomer.
The solutions obtained were stirred with a magnetic stirrer for 0.5 hours and were then visually inspected for the presence of insolubles. The solutions were evaluated as ◯ when the solution was transparent and free from insolubles, as Δ when the solution was turbid but free from insolubles, and as x when insolubles were present. The solubility evaluations in Tables 3 to 6 are also based on the same criteria.

[1] = 2.6 parts sulfur-containing compound in 97.4 parts IPA
[2] = 2.6 parts sulfur-containing compound in 97.4 parts MMA
[3] = 2.6 parts sulfur-containing compound in 97.4 parts acetone
[4] = 0.65 parts sulfur-containing compound in 99.35 parts IPA
[5] = 20 parts sulfur-containing compound in 80 parts acetone
[6] = added to acetone at a concentration of 20 mass %

Row | Compound | Solubility [1] | Solubility [2] | Solubility [3] | Solubility [5] | other results
1 | C=C(C)C(=O)OCCOC(=O)CCC1NC(=S)NC1=O (stereo not drawn) [2-THPEM, 2-((3-(5-oxo-2-thioxoimidazolidin-4-yl)propanoyl)oxy)ethyl methacrylate] | ∘ | ∘ | ∘ |  | 
2 | C=C(C)C(=O)OCCCCOC(=O)CCC1NC(=S)NC1=O (stereo not drawn) [4-THPBM, 4-((3-(5-oxo-2-thioxoimidazolidin-4-yl)propanoyl)oxy)butyl methacrylate] | ∘ | ∘ | ∘ |  | 
3 | C=C(C)C(=O)OCCCCCCOC(=O)CCC1NC(=S)NC1=O (stereo not drawn) [6-THPHM, 6-((3-(5-oxo-2-thioxoimidazolidin-4-yl)propanoyl)oxy)hexyl methacrylate] | ∘ | ∘ | ∘ |  | 
4 | C=C(C)C(=O)OCCCCCCCCCCOC(=O)CCC1NC(=S)NC1=O (stereo not drawn) [10-THPDM, 10-((3-(5-oxo-2-thioxoimidazolidin-4-yl)propanoyl)oxy)decyl methacrylate] | ∘ | ∘ | ∘ | ∘ | Solubility [4]: ∘; Solubility (0.65 parts sulfur-containing compound in 99.35 parts MMA): ∘; Solubility (0.65 parts sulfur-containing compound in 99.35 parts acetone): ∘; solubility (in words) [6]: dissolved completely
5 | C=Cc1ccc(CN(CCC)c2nc(=S)[nH]c(=S)[nH]2)cc1 [VBATDT, 6-(4-Vinylbenzyl-n-propyl)amino-1,3,5-triazine-2,4-dithione, reference compound] |  |  | ∘ |  | Solubility (0.5 parts sulfur-containing compound in 99.5 parts acetone): ∘; solubility (in words) [6]: generated insolubles; solubility (in words) (with respect to IPA and MMA): low solubility
6 | C=C(C)C(=O)OCCCCCCC1NC(=S)NC1=O (stereo not drawn) [a20, 6-(5-oxo-2-thioxoimidazolidin-4-yl)hexyl methacrylate] | ∘ | ∘ |  | ∘ | 

Continued, in another order:

Row | Solubility [1] | Solubility [2] | Solubility [3] | Solubility [5] | Compound | other results
7 |  | ∘ |  |  | C=C(C)C(=O)OCCCCCC=C1NC(=S)NC1=O [a21, 6-(5-oxo-2-thioxoimidazolidin-4-ylidene)hexyl methacrylate] | Solubility [4]: ∘; Solubility (10 parts sulfur-containing compound in 90 parts acetone): ∘
8 | ∘ | ∘ |  | ∘ | C=C(C)C(=O)OCCCCCCCC=C1NC(=S)NC1=O [a23, 8-(5-oxo-2-thioxoimidazolidin-4-ylidene)octyl methacrylate] | 
9 | ∘ | ∘ |  | ∘ | C=C(C)C(=O)OCCCCCCCCCCC1NC(=S)NC1=O (stereo not drawn) [a24, 10-(5-oxo-2-thioxoimidazolidin-4-yl)decyl methacrylate] | 
10 | ∘ | ∘ |  | ∘ | C=C(C)C(=O)OCCCCCCCCCC=C1NC(=S)NC1=O [a25, 10-(5-oxo-2-thioxoimidazolidin-4-ylidene)decyl methacrylate] | 
